Results published in BindingDB's records for PubMed 9864265 (Second Tokushima Institute of New Drug Research, 1998).

Experiments:
Vasopressin V1b receptor = biological target: T1, Vasopressin V1b receptor (Homo sapiens, UniProt P47901)
T1 sequence (P47901 whole entry): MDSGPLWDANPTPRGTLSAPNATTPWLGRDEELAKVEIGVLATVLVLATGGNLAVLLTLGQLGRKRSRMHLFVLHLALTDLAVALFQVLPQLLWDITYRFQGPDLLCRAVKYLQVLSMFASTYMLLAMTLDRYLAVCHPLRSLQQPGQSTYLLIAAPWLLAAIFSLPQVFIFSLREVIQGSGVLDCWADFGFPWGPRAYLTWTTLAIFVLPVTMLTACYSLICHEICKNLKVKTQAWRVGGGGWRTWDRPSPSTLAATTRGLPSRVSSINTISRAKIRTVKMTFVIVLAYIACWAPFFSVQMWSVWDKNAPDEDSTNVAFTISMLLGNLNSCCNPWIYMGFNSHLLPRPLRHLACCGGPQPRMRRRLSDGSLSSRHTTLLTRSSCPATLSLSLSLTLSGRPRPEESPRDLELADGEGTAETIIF

Vasopressin V1a receptor = Vasopressin V1a receptor (Rattus norvegicus, UniProt P30560)
Vasopressin V1a receptor, sequence (P30560 whole entry): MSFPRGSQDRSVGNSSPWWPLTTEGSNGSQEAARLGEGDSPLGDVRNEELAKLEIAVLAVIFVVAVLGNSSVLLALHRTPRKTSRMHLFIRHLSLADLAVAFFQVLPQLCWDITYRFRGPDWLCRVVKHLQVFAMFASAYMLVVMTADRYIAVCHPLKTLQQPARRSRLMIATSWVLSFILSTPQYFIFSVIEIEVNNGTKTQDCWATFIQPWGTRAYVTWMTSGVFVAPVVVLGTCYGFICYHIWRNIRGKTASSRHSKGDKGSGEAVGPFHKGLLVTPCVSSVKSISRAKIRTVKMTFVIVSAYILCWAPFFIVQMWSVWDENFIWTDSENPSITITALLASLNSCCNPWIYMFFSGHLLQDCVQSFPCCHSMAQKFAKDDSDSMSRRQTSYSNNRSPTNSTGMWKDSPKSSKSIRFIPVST

Vasopressin V2 receptor = Vasopressin V2 receptor (Rattus norvegicus, UniProt Q00788)
Vasopressin V2 receptor, sequence (Q00788 whole entry): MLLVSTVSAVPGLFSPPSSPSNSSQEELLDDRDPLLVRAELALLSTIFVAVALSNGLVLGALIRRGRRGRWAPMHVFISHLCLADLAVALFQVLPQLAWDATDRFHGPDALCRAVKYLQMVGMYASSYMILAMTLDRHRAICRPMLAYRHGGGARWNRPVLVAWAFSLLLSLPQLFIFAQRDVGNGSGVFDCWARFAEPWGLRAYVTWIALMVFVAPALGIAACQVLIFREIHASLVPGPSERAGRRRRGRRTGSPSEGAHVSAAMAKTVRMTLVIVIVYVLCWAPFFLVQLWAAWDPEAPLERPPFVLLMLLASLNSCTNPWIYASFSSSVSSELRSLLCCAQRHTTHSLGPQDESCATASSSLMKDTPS

Row | Ki (Vasopressin V1b receptor) | Ki (Vasopressin V1a receptor) | Ki (Vasopressin V2 receptor) | SMILES
1 | > 10000 nM | 524 nM |  | Cc1ccccc1C(=O)Nc1ccc(C(=O)N2CCCC(N(C)C)c3ccccc32)cc1 (stereo not given)
2 | > 10000 nM | 325 nM | 1.33 nM | Cc1ccccc1C(=O)Nc1ccc(C(=O)N2CCCC(O)c3cc(Cl)ccc32)c(C)c1 (stereo not given)
